Assay results published in US11236052B2, “Aminobenzimidazole derivatives, treatments, and methods of inhibiting histone deacetylase” (TRANSLATIONAL DRUG DEVELOPMENT, LLC, priority 2017, dated 2022).
pIC50: −log10 of the molar value. Read-outs that look alike come from different tables or passages of the source.

Key:
[1] = test system: U251; assay: CellTiter-Glo cell viability assay, U251; type: cell-based; conditions: GBM; for pIC50: Homo sapiens, U-251, U251, 72 hours
Protocol: (§1) Cell Viability Assay—Cell viability was measured by the CellTiter-Glo® cell viability assay Promega (Madison, Wis.). The CellTiter-Glo® Luminescent Cell Viability Assay is a homogeneous method to determine the number of viable cells in culture based on quantitation of the ATP present, which signals the presence of metabolically active cells. Following treatment, CellTiter-Glo® is added to treatment wells and incubated at 37° C. luminescence values were measured at using a Molecular Devices Spectramax microplate reader.
(§2) Single Agent Studies—Cells were grown to 70% confluency, trypsinized, counted, and seeded in 96 well flat-bottom plates at a final concentration of 2.5×10^3-5×10^3 cells/well (Day 0). Cells were allowed to incubate in growth media for 24 hours. Treatment with the test agents began on Day 1 and continued for 72 hours. At the 72-hour time point, treatment-containing media was removed. Viable cell numbers are quantified by the CellTiter-Glo® cell viability assay as described above. Experiments were run with triplicate concentrations to determine growth inhibitory activity. Results from these studies were used to calculate an IC50 value (concentration of drug that inhibits cell growth by 50 percent of control) for each compound.
(§3) Data Collection—For single agent and combination studies, data from each experiment was collected and expressed as % Cell Growth using the following calculation: % Cell Growth=(ftest/fvehicle)×100
(§4) Where ftest is the luminescence of the tested sample, and fvehicle is the luminescence of the vehicle in which the drug is dissolved. Dose response graphs and IC50 values were generated using Prism 6 software (GraphPad).

[2] = test system: MDA-157; assay: CellTiter-Glo cell viability assay, MDA-157; type: cell-based; conditions: Breast; for pIC50: MDA-157, 72 hours
Protocol: as §1, §2, §3, §4

[3] = test system: MCF7; assay: CellTiter-Glo cell viability assay, MCF7; type: cell-based; conditions: Breast; for pIC50: Homo sapiens, MCF7, 72 hours
Protocol: as §1, §2, §3, §4

[4] = test system: GIST48; assay: CellTiter-Glo cell viability assay, GIST48; type: cell-based; conditions: GIST; for pIC50: Homo sapiens, GIST48, 72 hours
Protocol: as §1, §2, §3, §4

[5] = test system: GIST882; assay: CellTiter-Glo cell viability assay, GIST882; type: cell-based; conditions: GIST; for pIC50: Homo sapiens, GIST882, 72 hours
Protocol: as §1, §2, §3, §4

[6] = test system: AN3CA; assay: CellTiter-Glo cell viability assay, AN3CA; type: cell-based; conditions: Uterine; for pIC50: Homo sapiens, AN3-CA, 72 hours
Protocol: as §1, §2, §3, §4

[7] = test system: SKUT-1; assay: CellTiter-Glo cell viability assay, SKUT-1; type: cell-based; conditions: Uterine; for pIC50: Homo sapiens, SK-UT-1, SKUT-1, 72 hours
Protocol: as §1, §2, §3, §4

[8] = test system: SKUT-1B; assay: CellTiter-Glo cell viability assay, SKUT-1B; type: cell-based; conditions: Uterine; for pIC50: Homo sapiens, Skut1B, 72 hours
Protocol: as §1, §2, §3, §4

[9] = test system: Ishikawa; assay: CellTiter-Glo cell viability assay, Ishikawa; type: cell-based; conditions: Uterine; for pIC50: Homo sapiens, 72 hours
Protocol: as §1, §2, §3, §4

[10] = test system: SNG-M; assay: CellTiter-Glo cell viability assay, SNG-M; type: cell-based; conditions: Uterine; for pIC50: 72 hours
Protocol: as §1, §2, §3, §4

[11] = test system: KMS-34; assay: CellTiter-Glo cell viability assay, KMS-34; type: cell-based; conditions: Myeloma; for pIC50: KMS-34, 72 hours
Protocol: as §1, §2, §3, §4

[12] = test system: U266; assay: CellTiter-Glo cell viability assay, U266; type: cell-based; conditions: Myeloma; for pIC50: Homo sapiens, U-266, U266, 72 hours
Protocol: as §1, §2, §3, §4

[13] = test system: H1437; assay: CellTiter-Glo cell viability assay, H1437; type: cell-based; conditions: NSCLC; for pIC50: Homo sapiens, NCI-H1437, H1437, 72 hours
Protocol: as §1, §2, §3, §4

[14] = Pharmacokinetic studies in the mouse; type: in vivo; conditions: for Vd: read-out: Vss; for Vd/F: read-out: Vz/F obs
Protocol: Plasma samples were collected from healthy mice and analyzed for levels of compound ID #1, ID #2, and ID #3 and reported in Table 5. In brief, compounds were individually and accurately weighed out to produce a stock solution in Dimethyl-sulfoxide (DMSO) at a concentration of 2 mg/mL and stored at −20° C. From the stock solution, a working stock was prepared by diluting it in Methanol-Water 50:50 (v/v) at 20 μg/mL for calibration curve preparation and stored at 4° C. Standards used for quantitation and quality control samples (QC's) were prepared on the same day of sample processing using blank plasma obtained from non-treated mice. For each analyte, standards were prepared through serial dilution of the working stock at concentrations of 0.1, 0.5, 1.0, 10, 50, 100, 500 and 1000 ng/mL; QC's were prepared at intermediate concentrations of 0.75, 7.5, 75 and 750 ng/mL. Plasma samples were stored at −80° C. until ready for analysis and then placed on ice for thawing. An aliquot of 20 μL for samples, standards and QC's, were transferred into a 96-well extraction plate according to a pre-defined layout. Appropriate volume of Methanol-Formic Acid 99.9-0.1 containing internal standard (Verapamil at 25 ng/mL) was added to each well and samples were extracted under vacuum. Eluent was then transferred into a LCMS plate for analysis using a suitable column for separation and MRM detection. Concentration of analytes was calculated based on the calibration curve and analyzed for pharmacokinetic parameters by using Non-compartmental analysis (NCA) using WinNonlin Phoenix software. Parameters such as Cmax, Tmax, half-life, AUC(0-last), AUC(0-∞), volume of distribution (Vss) and clearance (Cl/F) were reported.
The analogs were tested for pharmacokinetic analysis in the mouse with doses of 1 mg/kg for intravenous (IV) route and 5 mg/kg for oral (P0) route. […] Overall exposure following IV dose also favored compound ID #1 with AUCO-∞ 1488.1 hr*ng/mL whereas compound ID #2 and ID #3 were 329.1 and 1193.7 hr*ng/mL, respectively.

[15] = % PPB, rat; type: in vitro ADME; conditions: plasma; rat (r)
[16] = % PPB, human; type: in vitro ADME; conditions: plasma; human (hu)
[17] = S9 in vitro half-life; type: in vitro ADME; conditions: S9 fraction
[18] = plasma, 1.0 mg/kg IV, read-out: Half-life (converted)
[19] = plasma, 5.0 mg/kg PO, read-out: Half-life (converted)
[20] = plasma, iv, 1 mg/kg, 1.0 mg/kg IV, read-out: AUC0-∞
[21] = plasma, iv, 1 mg/kg, 1.0 mg/kg IV, read-out: Cmax
[22] = plasma, po, 5 mg/kg, 5.0 mg/kg PO, read-out: AUC0-∞
[23] = plasma, po, 5 mg/kg, 5.0 mg/kg PO, read-out: Cmax
[24] = plasma, po, 5 mg/kg, 5 mg/kg oral, read-out: AUC0-∞ (overall exposure following oral doses)

O=C(NO)c1ccc(Nc2nc3ccccc3n2CC2CCCCC2)cc1 [ID #1, 4-((1-(cyclohexylmethyl)-1H-benzo[d]imidazol-2-yl)amino)-N-hydroxybenzamide]
Improvement ID #1 over ID #3 Percent ([1]; U251): 61.18%
Improvement ID #1 over ID #3 fold ([1]; U251): 2.58 fold
pIC50 [1]: 5.80
Improvement ID #1 over ID #3 Percent ([2]; MDA-157): 63.77%
Improvement ID #1 over ID #3 fold ([2]; MDA-157): 2.76 fold
pIC50 [2]: 5.56
Improvement ID #1 over ID #3 Percent ([3]; MCF7): 44.79%
Improvement ID #1 over ID #3 fold ([3]; MCF7): 1.81 fold
pIC50 [3]: 5.71
Improvement ID #1 over ID #3 Percent ([4]; GIST48): 68.87%
Improvement ID #1 over ID #3 fold ([4]; GIST48): 3.21 fold
pIC50 [4]: 5.88
Improvement ID #1 over ID #3 Percent ([5]; GIST882): 67.66%
Improvement ID #1 over ID #3 fold ([5]; GIST882): 3.09 fold
pIC50 [5]: 5.24
pIC50 [6]: 5.80
Improvement ID #1 over ID #3 Percent [6]: 64.99%
Improvement ID #1 over ID #3 fold [6]: 2.86 fold
pIC50 [7]: 5.42
Improvement ID #1 over ID #3 Percent ([7]; SKUT-1): 60.21%
Improvement ID #1 over ID #3 fold ([7]; SKUT-1): 2.51 fold
pIC50 [8]: 5.60
Improvement ID #1 over ID #3 Percent [8]: 63.73%
Improvement ID #1 over ID #3 fold [8]: 2.76 fold
pIC50 [9]: 5.77
Improvement ID #1 over ID #3 Percent [9]: 61.10%
Improvement ID #1 over ID #3 fold [9]: 2.57 fold
Improvement ID #1 over ID #3 Percent [10]: 78.93%
Improvement ID #1 over ID #3 fold [10]: 4.75 fold
pIC50 [10]: 5.77
Improvement ID #1 over ID #3 Percent ([11]; KMS-34): 55.15%
Improvement ID #1 over ID #3 fold ([11]; KMS-34): 2.23 fold
pIC50 [11]: 6.21
pIC50 [12]: 5.93
Improvement ID #1 over ID #3 Percent ([12]; U266): 71.46%
Improvement ID #1 over ID #3 fold ([12]; U266): 3.50 fold
pIC50 [13]: 5.66
Improvement ID #1 over ID #3 Percent ([13]; H1437): 54.28%
Improvement ID #1 over ID #3 fold ([13]; H1437): 2.19 fold
AUC0-∞ ([14]; 1.0 mg/kg IV): 1488.05 ng·h/mL
AUC % Extrap ([14]; 1.0 mg/kg IV): 0.25%
Cl/F obs ([14]; 1.0 mg/kg IV): 11.5 mL/min/kg
Rsq (>0.85) ([14]; 1.0 mg/kg IV): 0.97
half-life ([14]; 1.0 mg/kg IV): 3.70 h
AUC % Extrap ([14]; 5.0 mg/kg PO): 0.75%
Cmax ([14]; 5.0 mg/kg PO): 757.43 ng/mL
Rsq (>0.85) ([14]; 5.0 mg/kg PO): 0.99
AUC(0-t) ([14]; plasma, 1.0 mg/kg IV): 1440 ng·h/mL
Tmax ([14]; plasma, 1.0 mg/kg IV): 0.08 h
half-life [14, 18]: 3.7 h
Vd ([14]; plasma, 1.0 mg/kg IV): 1.21 L/kg
AUC(0-t) ([14]; plasma, 5.0 mg/kg PO): 3220 ng·h/mL
CL/F ([14]; plasma, 5.0 mg/kg PO): 21 mL/min/kg
Tmax ([14]; plasma, 5.0 mg/kg PO): 0.5 h
bioavailability ([14]; plasma, 5.0 mg/kg PO): 53.4%
half-life [14, 19]: 3.39 h
Vd/F ([14]; plasma, 5.0 mg/kg PO): 6.16 L/kg
AUC(0-inf) [14, 20]: 1490 ng·h/mL
Cmax [14, 21]: 1290 ng/mL
AUC(0-inf) [14, 22]: 3970 ng·h/mL
Cmax [14, 23]: 757 ng/mL
AUC(0-inf) [14, 24]: 3970 ng·h/mL
fraction unbound [15]: 0.0017
fraction unbound [16]: 0.0056
half-life [17]: 1.25 h

O=C(NO)c1ccc(Nc2nc3ccccc3n2C2CCCCCC2)cc1 [ID #3, 4-((1-cycloheptyl-1H-benzo[d]imidazol-2-yl)amino)-N-hydroxybenzamide]
pIC50 [1]: 5.39
pIC50 [2]: 5.12
pIC50 [3]: 5.45
pIC50 [4]: 5.37
pIC50 [5]: 4.75
pIC50 [6]: 5.34
pIC50 [7]: 5.02
pIC50 [8]: 5.16
pIC50 [9]: 5.36
pIC50 [10]: 5.09
pIC50 [11]: 5.87
pIC50 [12]: 5.39
pIC50 [13]: 5.32
AUC0-∞ ([14]; 1.0 mg/kg IV): 1193.68 ng·h/mL
AUC % Extrap ([14]; 1.0 mg/kg IV): 0.16%
Cl/F obs ([14]; 1.0 mg/kg IV): 14 mL/min/kg
Rsq (>0.85) ([14]; 1.0 mg/kg IV): 0.92
half-life ([14]; 1.0 mg/kg IV): 2.37 h
AUC % Extrap ([14]; 5.0 mg/kg PO): 0.38%
Cmax ([14]; 5.0 mg/kg PO): 348.57 ng/mL
Rsq (>0.85) ([14]; 5.0 mg/kg PO): 1.00
AUC(0-t) ([14]; plasma, 1.0 mg/kg IV): 1190 ng·h/mL
Tmax ([14]; plasma, 1.0 mg/kg IV): 0.08 h
half-life [14, 18]: 2.37 h
Vd ([14]; plasma, 1.0 mg/kg IV): 1.96 L/kg
AUC(0-t) ([14]; plasma, 5.0 mg/kg PO): 1640 ng·h/mL
CL/F ([14]; plasma, 5.0 mg/kg PO): 50.5 mL/min/kg
Tmax ([14]; plasma, 5.0 mg/kg PO): 0.25 h
bioavailability ([14]; plasma, 5.0 mg/kg PO): 27.6%
half-life [14, 19]: 2.99 h
Vd/F ([14]; plasma, 5.0 mg/kg PO): 13.1 L/kg
AUC(0-inf) [14, 20]: 1190 ng·h/mL
Cmax [14, 21]: 830 ng/mL
AUC(0-inf) [14, 22]: 1650 ng·h/mL
Cmax [14, 23]: 349 ng/mL
AUC(0-inf) [14, 24]: 1650 ng·h/mL
fraction unbound [15]: 0.0055
fraction unbound [16]: 0.0064
half-life [17]: 1.22 h
